Measured values reported in patent publication US11851431B2, “Tricyclic Janus kinase 1 inhibitors, and compositions and methods thereof” (LYNK PHARMACEUTICALS CO. LTD., priority 2018, dated 2023).

How the values were obtained:
[1] = molecular target: T1, JAK1 (Homo sapiens, UniProt P23458); assay: JAK biochemical microfluidic assay (Caliper EZ Reader), JAK1; conditions: 1 mM ATP; head prints (5 nM)
T1 construct: purchased Carna Biosciences
Experimental: (§1) JAK activity was determined in the reaction buffer 50 mM HEPES, 0.01% Brij35, 10 mM MgCl2, 2 mM DTT by a microfluidic assay. The phosphorylation of a FAM labeled peptide substrate was monitored in the Caliper EZ Reader II (Perkin Elmer). The assay condition for each batch of enzyme (Carna Biosciences) was optimized to obtain 10% conversion rate of peptide substrate.
(§2) The test compounds were dissolved in DMSO to a stock concentration of 10 mM. Three-fold serially diluted compounds with top concentration of 5 μM were pre-incubated with JAK1, JAK2 or TYK2 for 10 min at ambient temperature. The final DMSO concentration of assay mixture was 1%. […] The reaction was stopped by adding 50 mM EDTA.
(§3) The percent inhibition was calculated by the following formula. % Inhibition=(Conversionmax−Conversionsample)/(Conversionmax−Conversionmin)*100 Conversionmax means the conversion rate in the positive well without addition of compound • […] means the conversion rate in the well without addition of enzyme • Conversionsample means the conversion rate of test compounds
(§4) The dose-response (percent inhibition) curve was plotted and IC50 values were determined by GraphPad software.

[2] = molecular target: T2, JAK2 (Homo sapiens, UniProt O60674); assay: JAK biochemical microfluidic assay (Caliper EZ Reader), JAK2; conditions: 1 mM ATP; head prints (0.25 nM)
T2 construct: purchased Carna Biosciences
T2 sequence (O60674 whole entry): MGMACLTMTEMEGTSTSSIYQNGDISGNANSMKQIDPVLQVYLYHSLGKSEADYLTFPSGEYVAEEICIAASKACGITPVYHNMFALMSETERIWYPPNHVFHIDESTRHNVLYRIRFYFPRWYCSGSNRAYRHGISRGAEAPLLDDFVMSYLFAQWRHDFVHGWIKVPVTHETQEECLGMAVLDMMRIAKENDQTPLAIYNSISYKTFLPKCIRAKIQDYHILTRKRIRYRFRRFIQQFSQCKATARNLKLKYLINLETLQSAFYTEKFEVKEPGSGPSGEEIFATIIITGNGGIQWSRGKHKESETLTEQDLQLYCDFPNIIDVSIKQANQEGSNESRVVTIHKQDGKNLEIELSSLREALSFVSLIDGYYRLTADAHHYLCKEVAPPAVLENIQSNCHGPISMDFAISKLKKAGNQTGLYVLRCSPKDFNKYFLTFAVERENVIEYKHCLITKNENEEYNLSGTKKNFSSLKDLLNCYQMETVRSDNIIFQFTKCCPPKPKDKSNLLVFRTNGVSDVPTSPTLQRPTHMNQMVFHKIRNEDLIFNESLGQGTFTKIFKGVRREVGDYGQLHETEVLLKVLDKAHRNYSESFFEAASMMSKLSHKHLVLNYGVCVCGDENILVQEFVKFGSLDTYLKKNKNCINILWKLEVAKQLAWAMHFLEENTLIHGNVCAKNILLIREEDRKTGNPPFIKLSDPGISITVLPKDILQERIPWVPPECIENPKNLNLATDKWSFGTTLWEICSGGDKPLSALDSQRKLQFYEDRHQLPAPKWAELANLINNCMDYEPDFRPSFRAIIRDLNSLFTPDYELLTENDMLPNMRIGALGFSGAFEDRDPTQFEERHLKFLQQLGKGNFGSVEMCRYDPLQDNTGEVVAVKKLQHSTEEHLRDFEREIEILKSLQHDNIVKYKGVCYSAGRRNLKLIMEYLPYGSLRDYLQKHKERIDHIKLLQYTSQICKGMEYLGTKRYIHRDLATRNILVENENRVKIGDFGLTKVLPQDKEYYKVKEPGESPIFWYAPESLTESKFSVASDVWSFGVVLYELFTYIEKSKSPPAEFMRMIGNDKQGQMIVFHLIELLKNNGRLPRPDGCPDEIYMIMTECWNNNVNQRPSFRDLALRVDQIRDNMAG
Experimental: as §1, §2, §3, §4

T1 sequence (P23458 whole entry): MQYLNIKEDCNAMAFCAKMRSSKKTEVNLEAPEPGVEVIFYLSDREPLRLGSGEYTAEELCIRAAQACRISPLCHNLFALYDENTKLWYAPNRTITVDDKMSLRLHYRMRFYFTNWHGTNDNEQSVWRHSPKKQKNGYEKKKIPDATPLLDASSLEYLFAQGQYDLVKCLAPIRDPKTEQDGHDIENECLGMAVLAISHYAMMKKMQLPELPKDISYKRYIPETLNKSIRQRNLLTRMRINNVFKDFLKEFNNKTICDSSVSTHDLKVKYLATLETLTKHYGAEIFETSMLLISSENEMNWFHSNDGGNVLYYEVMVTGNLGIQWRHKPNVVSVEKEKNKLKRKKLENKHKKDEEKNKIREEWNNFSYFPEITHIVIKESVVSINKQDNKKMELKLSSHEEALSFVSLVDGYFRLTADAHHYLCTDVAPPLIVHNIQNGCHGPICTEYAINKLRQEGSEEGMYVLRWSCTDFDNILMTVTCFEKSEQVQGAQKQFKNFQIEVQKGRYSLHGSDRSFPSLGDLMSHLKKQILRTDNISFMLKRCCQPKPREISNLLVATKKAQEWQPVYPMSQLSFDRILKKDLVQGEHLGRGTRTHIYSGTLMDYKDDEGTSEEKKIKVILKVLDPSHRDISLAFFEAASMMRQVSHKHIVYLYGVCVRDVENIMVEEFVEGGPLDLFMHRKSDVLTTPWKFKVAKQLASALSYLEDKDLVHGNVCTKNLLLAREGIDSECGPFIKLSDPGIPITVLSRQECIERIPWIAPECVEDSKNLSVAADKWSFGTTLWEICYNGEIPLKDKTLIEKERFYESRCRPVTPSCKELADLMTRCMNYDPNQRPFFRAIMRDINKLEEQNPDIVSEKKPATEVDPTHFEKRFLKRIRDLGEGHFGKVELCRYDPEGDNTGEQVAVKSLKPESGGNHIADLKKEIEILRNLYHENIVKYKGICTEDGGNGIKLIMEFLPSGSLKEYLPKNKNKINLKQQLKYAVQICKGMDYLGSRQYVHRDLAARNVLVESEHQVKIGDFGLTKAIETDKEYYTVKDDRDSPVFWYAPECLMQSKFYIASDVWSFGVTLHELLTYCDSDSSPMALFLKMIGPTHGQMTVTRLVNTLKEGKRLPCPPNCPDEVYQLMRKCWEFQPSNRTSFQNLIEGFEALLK

Row | IC50 [1] | IC50 [2] | SMILES
1 | 0.0487 µM | 1.11 µM | CCCS(=O)(=O)NC12CC(n3c([C@@H](C)O)nc4cnc5[nH]ccc5c43)(C1)C2 [Example 47, (R)—N-(3-(2-(1-hydroxyethyl)imidazo[4,5-d]pyrrolo[2,3-b]pyridin-1(6H)-yl)bicyclo[1.1.1]pentan-1-yl)propane-1-sulfonamide]
2 | 0.142 µM | 0.965 µM | CC(C)(C#N)COC(=O)NC12CC(n3cnc4cnc5[nH]ccc5c43)(C1)C2 [Example 42, 2-Cyano-2-methylpropyl (3-(imidazo[4,5-d]pyrrolo[2,3-b]pyridin-1(6H)-yl)bicyclo[1.1.1]pentan-1-yl)carbamate]
3 | 0.0687 µM | 0.526 µM | N#CC1CCN(C(=O)NC23CC(n4cnc5cnc6[nH]ccc6c54)(C2)C3)C1 (centres unmarked) [Example 39, 3-Cyano-N-(3-(imidazo[4,5-d]pyrrolo[2,3-b]pyridin-1(6H)-yl)bicyclo[1.1.1]pentan-1-yl)pyrrolidine-1-carboxamide]
4 | 0.0494 µM | 0.355 µM | CC(C)(C#N)CNC(=O)NC12CC(n3cnc4cnc5[nH]ccc5c43)(C1)C2 [Example 40, 1-(2-Cyano-2-methylpropyl)-3-(3-(imidazo[4,5-d]pyrrolo[2,3-b]pyridin-1(6H)-yl)bicyclo[1.1.1]pentan-1-yl)urea]
5 | 0.0157 µM | 0.17 µM | N#CC1CN(S(=O)(=O)C[C@H]2C[C@@H](n3cnc4cnc5[nH]ccc5c43)C2)C1 [Example 45, 1-(((Cis-3-(imidazo[4,5-d]pyrrolo[2,3-b]pyridin-1(6H)-yl)cyclobutyl)methyl)sulfonyl) azetidine-3-carbonitrile]
6 | 0.013 µM | 0.244 µM | CCCS(=O)(=O)NC12CC(n3c(C)nc4cnc5[nH]ccc5c43)(C1)C2 [Example 48, N-(3-(2-methylimidazo[4,5-d]pyrrolo[2,3-b]pyridin-1(6H)-yl)bicyclo[1.1.1]pentan-1-yl)propane-1-sulfonamide]
7 | 0.0255 µM | 0.226 µM | CC(C)S(=O)(=O)NC12CC(n3cnc4cnc5[nH]ccc5c43)(C1)C2 [Example 30, N-(3-(imidazo[4,5-d]pyrrolo[2,3-b]pyridin-1(6H)-yl)bicyclo[1.1.1]pentan-1-yl)propane-2-sulfonamide]
8 | 0.0262 µM | 0.849 µM | COCCCS(=O)(=O)NC12CC(n3cnc4cnc5[nH]ccc5c43)(C1)C2 [Example 26, N-(3-(Imidazo[4,5-d]pyrrolo[2,3-b]pyridin-1(6H)-yl)bicyclo[1.1.1]pentan-1-yl)-3-methoxypropane-1-sulfonamide]
9 | 0.101 µM | 0.678 µM | O=C(NC12CC(n3cnc4cnc5[nH]ccc5c43)(C1)C2)N1CC(F)(F)C1 [Example 37, 3,3-Difluoro-N-(3-(imidazo[4,5-d]pyrrolo[2,3-b]pyridin-1(6H)-yl)bicyclo[1.1.1]pentan-1-yl)azetidine-1-carboxamide]
10 | 0.0254 µM | 0.199 µM | CCCNC(=O)NC12CC(n3cnc4cnc5[nH]ccc5c43)(C1)C2 [Example 34, 1-(3-(Imidazo[4,5-d]pyrrolo[2,3-b]pyridin-1(6H)-yl)bicyclo[1.1.1]pentan-1-yl)-3-propylurea]
11 | 0.389 µM | 3.3 µM | COC1CN(C(=O)NC23CC(n4cnc5cnc6[nH]ccc6c54)(C2)C3)C1 [Example 38, N-(3-(Imidazo[4,5-d]pyrrolo[2,3-b]pyridin-1(6H)-yl)bicyclo[1.1.1]pentan-1-yl)-3-methoxyazetidine-1-carboxamide]
12 | 0.0156 µM | 0.223 µM | N#CCCNC(=O)NC12CC(n3cnc4cnc5[nH]ccc5c43)(C1)C2 [Example 43, 1-(2-Cyanoethyl)-3-(3-(imidazo[4,5-d]pyrrolo[2,3-b]pyridin-1(6H)-yl)bicyclo[1.1.1]pentan-1-yl)urea]
13 | 0.0144 µM | 0.146 µM | N#CCS(=O)(=O)NC12CC(n3cnc4cnc5[nH]ccc5c43)(C1)C2 [Example 33, 1-Cyano-N-(3-(imidazo[4,5-d]pyrrolo[2,3-b]pyridin-1(6H)-yl)bicyclo[1.1.1]pentan-1-yl)methanesulfonamide]
14 | 0.159 µM | 0.604 µM | CNS(=O)(=O)C[C@H]1C[C@@H](n2cnc3cnc4[nH]ccc4c32)C1 [Example 44, 1-(Cis-3-(imidazo[4,5-d]pyrrolo[2,3-b]pyridin-1(6H)-yl)cyclobutyl)-N-methylmethanesulfonamide]
15 | 0.0495 µM | – | CC(C)CNC(=O)NC12CC(n3cnc4cnc5[nH]ccc5c43)(C1)C2 [Example 36, 1-(3-(Imidazo[4,5-d]pyrrolo[2,3-b]pyridin-1(6H)-yl)bicyclo[1.1.1]pentan-1-yl)-3-isobutylurea]
16 | 0.235 µM | – | O=C(NC1CC1)NC12CC(n3cnc4cnc5[nH]ccc5c43)(C1)C2 [Example 35, 1-Cyclopropyl-3-(3-(imidazo[4,5-d]pyrrolo[2,3-b]pyridin-1(6H)-yl)bicyclo[1.1.1]pentan-1-yl)urea]
17 | 0.0905 µM | 0.992 µM | Cn1cc(S(=O)(=O)NC23CC(n4cnc5cnc6[nH]ccc6c54)(C2)C3)cn1 [Example 29, N-(3-(imidazo[4,5-d]pyrrolo[2,3-b]pyridin-1(6H)-yl)bicyclo[1.1.1]pentan-1-yl)-1-methyl-1H-pyrazole-4-sulfonamide]
18 | 0.0202 µM | 0.291 µM | CCS(=O)(=O)NC12CC(n3cnc4cnc5[nH]ccc5c43)(C1)C2 [Example 27, N-(3-(imidazo[4,5-d]pyrrolo[2,3-b]pyridin-1(6H)-yl)bicyclo[1.1.1]pentan-1-yl)ethanesulfonamide]
19 | > 5 µM | > 5 µM | CCCS(=O)(=O)NC12CC(N(C)c3ncnc4[nH]ccc34)(C1)C2 [Example 49, N-(3-(Methyl(7H-pyrrolo[2,3-d]pyrimidin-4-yl)amino)bicyclo[1.1.1]pentan-1-yl)propane-1-sulfonamide]

Further lines, the compound ahead of its results:

Row | SMILES | IC50 [1] | IC50 [2]
20 | N#CCC(=O)NC12CC(n3cnc4cnc5[nH]ccc5c43)(C1)C2 [Example 11, 2-Cyano-N-(3-(imidazo[4,5-d]pyrrolo[2,3-b]pyridin-1(6H)-yl)bicyclo[1.1.1]pentan-1-yl)acetamide] | 0.0117 µM | 0.166 µM
21 | CC(C)OC(=O)NC12CC(n3cnc4cnc5[nH]ccc5c43)(C1)C2 [Example 16, Isopropyl (3-(imidazo[4,5-d]pyrrolo[2,3-b]pyridin-1(6H)-yl)bicyclo[1.1.1]pentan-1-yl)carbamate] | 0.064 µM | –
22 | CCCC(=O)NC12CC(n3cnc4cnc5[nH]ccc5c43)(C1)C2 [Example 9, N-(3-(imidazo[4,5-d]pyrrolo[2,3-b]pyridin-1(6H)-yl)bicyclo[1.1.1]pentan-1-yl)butyramide] | 0.0587 µM | 0.441 µM
23 | CCN(C)S(=O)(=O)NC12CC(n3cnc4cnc5[nH]ccc5c43)(C1)C2 [Example 25, N-(3-(imidazo[4,5-d]pyrrolo[2,3-b]pyridin-1(6H)-yl)bicyclo[1.1.1]pentan-1-yl)-N′-methyl-N′-ethyl-1-sulfonamide] | 0.0261 µM | –
24 | CN(C)S(=O)(=O)NC12CC(n3cnc4cnc5[nH]ccc5c43)(C1)C2 [Example 24, N-(3-(imidazo[4,5-d]pyrrolo[2,3-b]pyridin-1(6H)-yl)bicyclo[1.1.1]pentan-1-yl)-N′-dimethyl-1-sulfonamide] | 0.023 µM | –
25 | O=C(NC12CC(n3cnc4cnc5[nH]ccc5c43)(C1)C2)C1CC1 [Example 12, N-(3-(Imidazo[4,5-d]pyrrolo[2,3-b]pyridin-1(6H)-yl)bicyclo[1.1.1]pentan-1-yl)cyclopropanecarboxamide] | 0.0355 µM | –
26 | N[C@H]1C[C@@H](n2cnc3cnc4[nH]ccc4c32)C1 [Example 2e, Cis-3-(imidazo[4,5-d]pyrrolo[2,3-b]pyridin-1(6H)-yl)cyclobutanamine 2,2,2-trifluoroacetate] | 2.57 µM | > 5 µM
27 | CC(C)COC(=O)NC12CC(n3cnc4cnc5[nH]ccc5c43)(C1)C2 [Example 10, Isobutyl (3-(imidazo[4,5-d]pyrrolo[2,3-b]pyridin-1(6H)-yl)bicyclo[1.1.1]pentan-1-yl)carbamate] | 0.165 µM | 0.868 µM
28 | CC(C)CC(=O)NC12CC(n3cnc4cnc5[nH]ccc5c43)(C1)C2 [Example 8, N-(3-(Imidazo[4,5-d]pyrrolo[2,3-b]pyridin-1(6H)-yl)bicyclo[1.1.1]pentan-1-yl)-3-methylbutanamide] | 0.0474 µM | 0.328 µM
29 | O=C(NC12CC(n3cnc4cnc5[nH]ccc5c43)(C1)C2)OCC1CC1 [Example 19, Cyclopropylmethyl (3-(imidazo[4,5-d]pyrrolo[2,3-b]pyridin-1(6H)-yl)bicyclo[1.1.1]pentan-1-yl)carbamate] | 0.0513 µM | 0.578 µM
30 | NC12CC(n3cnc4cnc5[nH]ccc5c43)(C1)C2 [Example 1j, 3-(Imidazo[4,5-d]pyrrolo[2,3-b]pyridin-1(6H)-yl)bicyclo[1.1.1]pentan-1-amine 2,2,2-trifluoroacetate] | 0.278 µM | –
31 | O=C(NC12CC(n3cnc4cnc5[nH]ccc5c43)(C1)C2)c1ccc(Cl)cc1 [Example 15, 4-Chloro-N-(3-(imidazo[4,5-d]pyrrolo[2,3-b]pyridin-1(6H)-yl)bicyclo[1.1.1]pentan-1-yl)benzamide] | 0.0826 µM | –
32 | COC1CN(S(=O)(=O)NC23CC(n4cnc5cnc6[nH]ccc6c54)(C2)C3)C1 [Example 21, N-(3-(imidazo[4,5-d]pyrrolo[2,3-b]pyridin-1(6H)-yl)bicyclo[1.1.1]pentan-1-yl)-3-methoxyazetidine-1-sulfonamide] | 0.0142 µM | 0.326 µM
